IC50 data for twelve molecules are collected here from patent US9351974B2, “Substituted pteridinones for the treatment of cancer” (OSI Pharmaceuticals, LLC, priority 2011, dated 2016).

Each structure is given as a SMILES string.

The target of this test is T1, His-tagged full-length RSK2 (RPS6KA3) (Homo sapiens, UniProt P51812).
T1 construct: His-tagged full-length RSK2 (RPS6KA3, Invitrogen PV3323); His; purchased Invitrogen PV3323
Kind of test: RSK2 Omnia Assay for compound IC50 determination. The following applies: ATP 15 μM, n=2, read-out: Mean RSK2 Biochem IC50. In kind it is biochemical. An outline of the steps: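 Continuous fluorescence assay (ex 360/em 485 nm) of SOX-peptide (Omnia ST Peptide 6, 5 μM) phosphorylation with ATP 15 μM (Km 16.3 μM). Enzyme was […], in pH 7.5 HEPES/MgCl2 buffer with 1% DMSO. IC50 came from 11-point threefold dilutions ([…]) by four-parameter fit of initial slopes, in duplicate; Ki by Cheng-Prusoff assuming competitive inhibition.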

T1 sequence (P51812 whole entry): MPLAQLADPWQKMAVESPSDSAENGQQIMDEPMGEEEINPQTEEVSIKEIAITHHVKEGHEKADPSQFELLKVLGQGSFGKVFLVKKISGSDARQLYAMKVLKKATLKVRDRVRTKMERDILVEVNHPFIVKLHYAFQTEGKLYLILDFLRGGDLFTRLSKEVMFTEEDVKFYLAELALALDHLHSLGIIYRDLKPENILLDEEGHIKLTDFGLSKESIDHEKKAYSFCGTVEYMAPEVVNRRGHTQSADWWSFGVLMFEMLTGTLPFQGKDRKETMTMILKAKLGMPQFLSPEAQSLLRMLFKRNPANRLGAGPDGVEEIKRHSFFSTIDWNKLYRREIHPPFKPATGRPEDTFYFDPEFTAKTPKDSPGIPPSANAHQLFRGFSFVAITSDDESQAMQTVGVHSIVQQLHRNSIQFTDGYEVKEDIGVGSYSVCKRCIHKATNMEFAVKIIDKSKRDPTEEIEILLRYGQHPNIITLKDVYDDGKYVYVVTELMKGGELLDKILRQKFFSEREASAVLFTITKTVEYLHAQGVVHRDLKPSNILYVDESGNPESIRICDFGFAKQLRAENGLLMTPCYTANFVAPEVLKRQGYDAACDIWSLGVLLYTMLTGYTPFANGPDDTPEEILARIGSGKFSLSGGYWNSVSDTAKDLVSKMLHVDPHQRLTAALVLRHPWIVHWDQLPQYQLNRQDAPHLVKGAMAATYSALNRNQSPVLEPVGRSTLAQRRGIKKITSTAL

In the case of `C[C@@H]1C(=O)N(c2cccc(Cl)c2)c2cnc(Nc3ccc4[nH]ncc4c3)nc2N1C1CCCCC1` [Example 31, (7R)-5-(3-chlorophenyl)-8-cyclohexyl-2-(1H-indazol-5-ylamino)-7-methyl-7,8-dihydropteridin-6(5H)-one], the IC50 was at most 0.1 µM.
Consider `C[C@@H]1C(=O)N(c2ccc(F)c(C#N)c2)c2cnc(Nc3ccc4[nH]ncc4c3)nc2N1C1CCCCC1` [compound 96, 5-[(7R)-8-cyclohexyl-2-(1H-indazol-5-ylamino)-7-methyl-6-oxo-7,8-dihydropteridin-5(6H)-yl]-2-fluorobenzonitrile], for which the half-maximal inhibitory concentration (IC50) is at most 0.1 µM.
With `C[C@@H]1C(=O)N(c2ccc(Cl)cc2)c2cnc(Nc3ccc4[nH]ncc4c3)nc2N1C1CCCCC1` [Example 21, (7R)-5-(4-chlorophenyl)-8-cyclohexyl-2-(1H-indazol-5-ylamino)-7-methyl-7,8-dihydropteridin-6(5H)-one], the IC50 was at most 0.1 µM.
Next, `CC(C)CCN1c2nc(Nc3ccc4[nH]ncc4c3)ncc2N(c2ccccc2)C(=O)[C@@H]1C` [Example 17, (7S)-2-(1H-indazol-5-ylamino)-7-methyl-8-(3-methylbutyl)-5-phenyl-7,8-dihydropteridin-6(5H)-one]: at most 0.1 µM; `COc1ccc(N2C(=O)[C@@H](C)N([C@H]3CC[C@@H](OC)CC3)c3nc(Nc4cc(F)c5[nH]ncc5c4)ncc32)cc1OC` [compound 226, (7R)-5-(3,4-dimethoxyphenyl)-2-[(7-fluoro-1H-indazol-5-yl)amino]-8-(cis-4-methoxycyclohexyl)-7-methyl-7,8-dihydropteridin-6(5H)-one]: at most 0.1 µM.
With `CCOc1ccc(N2C(=O)[C@@H](C)N(CCC(C)C)c3nc(Nc4cc(F)c5[nH]ncc5c4)ncc32)cc1C#N` [Example 92, 2-ethoxy-5-[(7R)-2-[(7-fluoro-1H-indazol-5-yl)amino]-7-methyl-8-(3-methylbutyl)-6-oxo-7,8-dihydropteridin-5(6H)-yl]benzonitrile], the IC50 is at most 0.1 µM.
Next, `COC(=O)c1cccc(Nc2ncc3c(n2)N(CCC(C)C)C(C)C(=O)N3c2ccccc2)c1` (stereo not drawn) [Example 10, methyl 3-{[7-methyl-8-(3-methylbutyl)-6-oxo-5-phenyl-5,6,7,8-tetrahydropteridin-2-yl]amino}benzoate]: above 1 µM; `C[C@@H]1C(=O)N(c2cccc(C#N)c2)c2cnc(Nc3ccc(S(N)(=O)=O)cc3)nc2N1C1CCC(F)(F)CC1` [compound 273, 4-{[(7R)-5-(3-cyanophenyl)-8-(4,4-difluorocyclohexyl)-7-methyl-6-oxo-5,6,7,8-tetrahydropteridin-2-yl]amino}benzenesulfonamide]: at most 0.1 µM; `C[C@@H]1C(=O)N(c2ccc(Cl)c(C#N)c2)c2cnc(Nc3ccc4[nH]ncc4c3)nc2N1C1CCCCC1` [compound 105, 2-chloro-5-[(7R)-8-cyclohexyl-2-(1H-indazol-5-ylamino)-7-methyl-6-oxo-7,8-dihydropteridin-5(6H)-yl]benzonitrile]: at most 0.1 µM.
Next, `CO[C@H]1CC[C@@H](N2c3nc(Nc4cc(F)c5[nH]ncc5c4)ncc3N(c3cccnc3)C(=O)[C@H]2C)CC1` [compound 227, (7R)-2-[(7-fluoro-1H-indazol-5-yl)amino]-8-(cis-4-methoxycyclohexyl)-7-methyl-5-(pyridin-3-yl)-7,8-dihydropteridin-6(5H)-one]: at most 0.1 µM; `Cc1ccc(N2C(=O)[C@@H](C)N(C3CCCCC3)c3nc(Nc4ccc5[nH]ncc5c4)ncc32)cc1` [Example 22, (7R)-8-cyclohexyl-2-(1H-indazol-5-ylamino)-7-methyl-5-(4-methylphenyl)-7,8-dihydropteridin-6(5H)-one]: at most 0.1 µM.
Next, `CC(C)Oc1ccc(N2C(=O)[C@@H](C)N([C@H]3CC[C@H](C)CC3)c3nc(Nc4ccc5[nH]c(=O)oc5c4)ncc32)cc1C#N` [compound 249, 5-[(7R)-7-methyl-8-(trans-4-methylcyclohexyl)-6-oxo-2-[(2-oxo-2,3-dihydro-1,3-benzoxazol-6-yl)amino]-7,8-dihydropteridin-5(6H)-yl]-2-(propan-2-yloxy)benzonitrile]: at most 0.1 µM.

A word on the IC50: it is the concentration at which inhibition is half-maximal.
